Data set [1] has as its system Differentiated human macrophages. As to the kind of experiment: Cellular uptake of Alexa Fluor 555-labeled HMGB1 by differentiated macrophages. The class given is cell-based. The note with it: P2-1 10 µg/ml, HMGB1 0.5 µg/ml, 2 h, 37 °C. Here is the method: plots and heatmaps were generat ed via ggplot2 and pheatmap packages in R, respectively. Genes with an adjusted P -value < 0.05 and a |log2 fold change| > 1 were considered differentially expressed.
Human macrophage differentiation and treatment
Human PBMCs were differentiated into macrophages by culturing in human macrophage colony-stimulating factor (M-CSF, 20 ng/ml) for 5 – 6 d. Differentiated macrophages were maintained in Dulbecco’s modified Eagle’s medium supplemented with 1% penicillin/streptomycin and 10% human serum. […]
Cell viability was assessed via the tryp an blue excl usion and lactat e dehyd ro genase (LDH) release method as previously described . For trypan blue exclusion, random phase-contr ast images were captur ed , and the percentage of nonviable, trypan blue-stained cells was calculated. LDH release in the culture medium was quantified with an LDH Ass ay Kit (Cat. #L7572, Pointe Scientific Inc., Canton, MI, USA) according to the manufacturer ’s instructions. Optical density was measured at 340 nm, and LDH content was expressed as a per centag e of maximal release in the presence of 2% Triton X-100. […]
#H-1200, Vector Laborat ories, Inc., Newark, CA, USA) for nuclear counterstaining. Endocytic uptake of Alexa Fluor 555- labeled HMGB1 (red) was visualized via the Olympus IX51 inverted fluorescence & phase contrast tissue culture microscope. […]

A short description of data set [2]: Water solubility. It is filed as physicochemical. The following applies: qualitative, text in Fig. 1d.

Where a SMILES comes first, the peptide text is derived from it.

`CCCC[C@H](NC(=O)[C@H](Cc1c[nH]cn1)NC(=O)[C@@H](NC(=O)[C@H](CCCCN)NC(=O)[C@@H](N)[C@@H](C)O)C(C)C)C(=O)N[C@@H](CCCCN)C(=O)N[C@@H](CO)C(=O)N[C@@H](Cc1ccccc1)C(=O)N[C@@H](CC(C)C)C(=O)N[C@@H](C)C(=O)N[C@@H](Cc1ccccc1)C(=O)N[C@@H](CCC(N)=O)C(=O)N[C@H](C(=O)N[C@@H](CCCCN)C(=O)N[C@H](C(=O)O)[C@@H](C)O)[C@@H](C)O` [P2-1] (HELM PEPTIDE1{T.K.V.H.[Nle].K.S.F.L.A.F.Q.T.K.T}$$$$V2.0; N-terminus and C-terminus assumed): the “HMGB1 cellular uptake, in words” value in data set [1] is recorded as “markedly reduced Alexa Fluor 555-HMGB1 uptake”. Also, the Water solubility entry in data set [2] is reported as “Good water solubility”.
